Results as given in ChEMBL document CHEMBL1201862, “PubChem BioAssay data set” (2004).
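Compound exposure: 48 hours, 5 concentrations, 96-well plates. GI50 = concentration required for 50% inhibition of growth.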 Calls of active or inactive are those of the source. Rule as the data show it: active = GI50 up to about 1.1 µM and inactive = higher.

Legend:
Assay in all cases: growth of human tumour cells (NCI), 48 h
[1] = system: SR
[2] = system: NCI-H460
[3] = system: MOLT-4
[4] = system: BT-549
[5] = system: OVCAR-5
[6] = system: TK-10
[7] = system: U-251
[8] = system: OVCAR-8
[9] = system: PC-3
[10] = system: SN12C
[11] = system: SF-268
[12] = system: MDA-N
[13] = system: NCI-H226
[14] = system: SK-OV-3
[15] = system: NCI-H23
[16] = system: RPMI-8226
[17] = system: A549
[18] = system: ACHN
[19] = system: Malme-3M
[20] = system: SK-MEL-5

SMILES	GI50 [1]	GI50 [2]	GI50 [3]	GI50 [4]	GI50 [5]	GI50 [6]	GI50 [7]	GI50 [8]	GI50 [9]	GI50 [10]	GI50 [11]	GI50 [12]	GI50 [13]	GI50 [14]	GI50 [15]	GI50 [16]	GI50 [17]	GI50 [18]	GI50 [19]	GI50 [20]
COc1ccc(C(C)c2cc3c(cc2OC)OCO3)cc1 (stereo not given)	0.881 µM (active)	0.122 µM (active)	0.264 µM (active)	51.8 µM (inactive)	3.48 µM (inactive)	8.95 µM (inactive)	0.229 µM (active)	0.269 µM (active)	0.0715 µM (active)	0.378 µM (active)	0.614 µM (active)	0.019 µM (active)	0.416 µM (active)	0.2 µM (active)	0.169 µM (active)	0.122 µM (active)	0.218 µM (active)	3.01 µM (inactive)	0.0951 µM (active)	0.0659 µM (active)
N=C(N)NC(=N)Nc1ccc(S(N)(=O)=O)cc1	> 100 µM (inactive)	> 100 µM (inactive)	> 100 µM (inactive)	> 100 µM (inactive)	> 100 µM (inactive)	> 100 µM (inactive)	> 100 µM (inactive)	> 100 µM (inactive)	> 100 µM (inactive)	> 100 µM (inactive)	> 100 µM (inactive)	> 100 µM (inactive)	> 100 µM (inactive)	> 100 µM (inactive)	> 100 µM (inactive)	> 100 µM (inactive)	> 100 µM (inactive)	> 100 µM (inactive)	> 100 µM (inactive)	> 100 µM (inactive)
O=C(Nc1sccc1S(=O)(=O)c1ccc(Cl)cc1)c1ccc(Cl)cc1	> 100 µM (inactive)	56.5 µM (inactive)	> 100 µM (inactive)	> 100 µM (inactive)	> 100 µM (inactive)	50.8 µM (inactive)	31 µM (inactive)	63 µM (inactive)	25.9 µM (inactive)	> 100 µM (inactive)	65.9 µM (inactive)	> 100 µM (inactive)	> 100 µM (inactive)	52.6 µM (inactive)	68.5 µM (inactive)	> 100 µM (inactive)	94.8 µM (inactive)	99.1 µM (inactive)	50.6 µM (inactive)	74.3 µM (inactive)
Ic1cccc(/C=C/CN2CCN(CCOC(c3ccccc3)c3ccccc3)CC2)c1	4.16 µM (inactive)	11.3 µM (inactive)	5.32 µM (inactive)	16.8 µM (inactive)	16.7 µM (inactive)	16.1 µM (inactive)	13.6 µM (inactive)	16 µM (inactive)	17.5 µM (inactive)	13.9 µM (inactive)	27.2 µM (inactive)	17.9 µM (inactive)	17.1 µM (inactive)	21.6 µM (inactive)	16.2 µM (inactive)	3.01 µM (inactive)	17.5 µM (inactive)	44.6 µM (inactive)	18.9 µM (inactive)	14.3 µM (inactive)
Nn1c(Cc2ccccc2)n[nH]c1=O	> 100 µM (inactive)	> 10 µM (inactive)	> 100 µM (inactive)	> 100 µM (inactive)	> 100 µM (inactive)	> 100 µM (inactive)	> 100 µM (inactive)	> 100 µM (inactive)	> 100 µM (inactive)	> 100 µM (inactive)	> 100 µM (inactive)	> 100 µM (inactive)	> 100 µM (inactive)	> 100 µM (inactive)	> 100 µM (inactive)	> 100 µM (inactive)	> 100 µM (inactive)	> 100 µM (inactive)	37.2 µM (inactive)	> 100 µM (inactive)
COC(=O)NC1C(C)OC(OC2C/C=C(/C)C3C=CC4C(OC5CC(OC6CCC(OC7CC(O)C(OC8CCC(O)C(C)O8)C(C)O7)C(C)O6)C(OC(C)=O)C(C)O5)C(C)CC(C)C4C3(C)/C(O)=C3/C(=O)OC4(CC(C=O)=CC(O)C4/C=C\2C)C3=O)CC1(C)[N+](=O)[O-] (stereo not given)	0.857 µM (active)	0.778 µM (active)	0.474 µM (active)	1.04 µM (active)	1.93 µM (inactive)	1.61 µM (inactive)	0.342 µM (active)	1 µM (active)	1.57 µM (inactive)	0.964 µM (active)	0.719 µM (active)	0.661 µM (active)	1.06 µM (active)	2.44 µM (inactive)	0.774 µM (active)	0.957 µM (active)	1.77 µM (inactive)	1.02 µM (active)	0.421 µM (active)	0.82 µM (active)
CN1CCC2(c3ccccc3)CC(=O)/C(=C/c3ccc(Cl)c(Cl)c3)C1C2.[O-][Cl+3]([O-])([O-])O (stereo not given)	0.968 µM (active)	2.35 µM (inactive)	2.6 µM (inactive)	2.72 µM (inactive)	2.35 µM (inactive)	3.71 µM (inactive)	1.82 µM (inactive)	2.21 µM (inactive)	1.96 µM (inactive)	1.85 µM (inactive)	1.86 µM (inactive)	4.42 µM (inactive)	2.09 µM (inactive)	4.05 µM (inactive)	2.86 µM (inactive)	2.29 µM (inactive)	3.4 µM (inactive)	1.77 µM (inactive)	11.5 µM (inactive)	2.6 µM (inactive)
CCOC(=O)c1ccc(-c2cccs2)[nH]1	54.7 µM (inactive)	> 100 µM (inactive)	51.4 µM (inactive)	> 63.1 µM (inactive)	> 57 µM (inactive)	> 65.3 µM (inactive)	> 76.4 µM (inactive)	> 55.5 µM (inactive)	72.6 µM (inactive)	> 100 µM (inactive)	> 92 µM (inactive)	66.8 µM (inactive)	> 100 µM (inactive)	> 62.7 µM (inactive)	67.5 µM (inactive)	> 70.8 µM (inactive)	> 62.5 µM (inactive)	78.9 µM (inactive)	63.4 µM (inactive)	30.8 µM (inactive)
COc1cc(/C=N/c2nc3cc4sc(/N=C/c5cc(OC)c(OC)c(OC)c5)nc4cc3s2)cc(OC)c1OC	21.7 µM (inactive)	21.5 µM (inactive)	31.3 µM (inactive)	> 100 µM (inactive)	> 100 µM (inactive)	> 100 µM (inactive)	46.1 µM (inactive)	95.5 µM (inactive)	52.1 µM (inactive)	43 µM (inactive)	89.1 µM (inactive)	27 µM (inactive)	31.4 µM (inactive)	> 100 µM (inactive)	56.1 µM (inactive)	51.2 µM (inactive)	40.5 µM (inactive)	> 100 µM (inactive)	> 100 µM (inactive)	37.1 µM (inactive)
CC(=O)OC1CC(n2cc(F)c(=O)[nH]c2=O)OC1CO (stereo not given)	0.604 µM (active)	0.0177 µM (active)	1.08 µM (active)	5.5 µM (inactive)	> 46.7 µM (inactive)	15.9 µM (inactive)	5.69 µM (inactive)	0.668 µM (active)	16.9 µM (inactive)	1.23 µM (inactive)	0.0807 µM (active)	24.3 µM (inactive)	49.1 µM (inactive)	61.1 µM (inactive)	2 µM (inactive)	21.9 µM (inactive)	0.143 µM (active)	0.0585 µM (active)	18 µM (inactive)	1.49 µM (inactive)
COc1cc2c3c(cc(Cl)nc3c1OC)C(O)(CC(C)=O)C(=O)N2 (stereo not given)	19.3 µM (inactive)	36 µM (inactive)	9.35 µM (inactive)	16.8 µM (inactive)	> 42.4 µM (inactive)	20.2 µM (inactive)	57.8 µM (inactive)	18.5 µM (inactive)	25.1 µM (inactive)	21.7 µM (inactive)	6.07 µM (inactive)	17.3 µM (inactive)	> 42.3 µM (inactive)	> 47.1 µM (inactive)	30.7 µM (inactive)	23.8 µM (inactive)	> 42.9 µM (inactive)	24.9 µM (inactive)	15.9 µM (inactive)	> 41 µM (inactive)
NC(Cc1nnn[nH]1)C(=O)O (stereo not given)	> 100 µM (inactive)	> 100 µM (inactive)	> 100 µM (inactive)	> 100 µM (inactive)	> 100 µM (inactive)	> 100 µM (inactive)	> 100 µM (inactive)	> 100 µM (inactive)	> 100 µM (inactive)	> 100 µM (inactive)	> 100 µM (inactive)	> 100 µM (inactive)	> 100 µM (inactive)	> 100 µM (inactive)	> 100 µM (inactive)	> 100 µM (inactive)	> 100 µM (inactive)	> 100 µM (inactive)	> 100 µM (inactive)	> 100 µM (inactive)
COC(=O)c1ccc2c(c1)C(NC(C)=O)CCc1cc(OC)c(OC)c(OC)c1-2 (stereo not given)	0.0123 µM (active)	0.0259 µM (active)	0.0151 µM (active)	0.104 µM (active)	0.112 µM (active)	16.9 µM (inactive)	< 0.0117 µM (active)	0.0154 µM (active)	< 0.0127 µM (active)	0.0223 µM (active)	0.0139 µM (active)	0.0113 µM (active)	0.0424 µM (active)	0.0188 µM (active)	0.0136 µM (active)	0.0151 µM (active)	0.018 µM (active)	0.018 µM (active)	0.015 µM (active)	0.013 µM (active)
C=C1C(=O)O[C@@H]2C[C@@H]3[C@]4(CC[C@]5(C)[C@@H]([C@H](C)CC/C=C(\C)C=O)CC[C@@]35C)C[C@]4(CCC(=O)OC)[C@H]12	0.993 µM (active)	2.8 µM (inactive)	0.979 µM (active)	2.03 µM (inactive)	2.16 µM (inactive)	2.46 µM (inactive)	1.38 µM (inactive)	1.12 µM (active)	1.9 µM (inactive)	1.9 µM (inactive)	1.72 µM (inactive)	1.61 µM (inactive)	3.4 µM (inactive)	3.52 µM (inactive)	1.84 µM (inactive)	0.295 µM (active)	6.64 µM (inactive)	2.06 µM (inactive)	1.59 µM (inactive)	0.83 µM (active)
